Experimental data reported in ChEMBL document CHEMBL1141658, “4-thiazolidinone--a biologically active scaffold” (Eur J Med Chem, 2008).
Converted amounts (≈) assume the structure as drawn. Each block holds one compound with its values, some of them ahead of it.

Columns and labels:
[1] = Selectivity index, ratio of inhibition of human MT4 cells to EC50 for HIV1 3B; assay type: toxicity, cell-based; conditions: read-out: Selectivity Index
[2] = target: T1, Prostaglandin G/H synthase 2 (Mus musculus) (UniProt Q05769); assay: Inhibition of COX2 in mouse J774 cells at 10 uM; assay type: cell-based
T1 sequence (whole entry): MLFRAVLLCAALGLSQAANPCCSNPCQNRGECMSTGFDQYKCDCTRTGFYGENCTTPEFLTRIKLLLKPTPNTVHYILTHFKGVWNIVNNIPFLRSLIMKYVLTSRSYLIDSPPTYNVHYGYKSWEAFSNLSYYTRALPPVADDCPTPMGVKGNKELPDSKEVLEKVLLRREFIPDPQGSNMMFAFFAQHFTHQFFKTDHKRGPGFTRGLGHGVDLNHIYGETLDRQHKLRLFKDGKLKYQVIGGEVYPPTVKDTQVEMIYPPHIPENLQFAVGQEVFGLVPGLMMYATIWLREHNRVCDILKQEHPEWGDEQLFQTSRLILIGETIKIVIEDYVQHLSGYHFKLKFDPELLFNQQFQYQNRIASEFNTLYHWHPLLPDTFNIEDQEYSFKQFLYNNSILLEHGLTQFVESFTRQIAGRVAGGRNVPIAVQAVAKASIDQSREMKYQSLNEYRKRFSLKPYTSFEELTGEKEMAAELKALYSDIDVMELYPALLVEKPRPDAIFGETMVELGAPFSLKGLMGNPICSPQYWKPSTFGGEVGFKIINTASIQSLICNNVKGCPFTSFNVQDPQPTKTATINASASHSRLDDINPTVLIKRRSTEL

[3] = target: T1, Prostaglandin G/H synthase 2 (Mus musculus); assay: Inhibition of COX2 in mouse J774 cells at 1 uM; assay type: cell-based
[4] = system: Cryptococcus neoformans; assay: Antifungal activity against Cryptococcus neoformans by serial double dilution method; assay type: functional
[5] = system: Candida albicans; assay: Antifungal activity against Candida albicans by serial double dilution method; assay type: functional
[6] = target: T2, Follicle-stimulating hormone receptor (Homo sapiens, UniProt P23945); assay: Agonist activity at human recombinant FSH receptor; assay type: functional
T2 sequence (P23945 whole entry): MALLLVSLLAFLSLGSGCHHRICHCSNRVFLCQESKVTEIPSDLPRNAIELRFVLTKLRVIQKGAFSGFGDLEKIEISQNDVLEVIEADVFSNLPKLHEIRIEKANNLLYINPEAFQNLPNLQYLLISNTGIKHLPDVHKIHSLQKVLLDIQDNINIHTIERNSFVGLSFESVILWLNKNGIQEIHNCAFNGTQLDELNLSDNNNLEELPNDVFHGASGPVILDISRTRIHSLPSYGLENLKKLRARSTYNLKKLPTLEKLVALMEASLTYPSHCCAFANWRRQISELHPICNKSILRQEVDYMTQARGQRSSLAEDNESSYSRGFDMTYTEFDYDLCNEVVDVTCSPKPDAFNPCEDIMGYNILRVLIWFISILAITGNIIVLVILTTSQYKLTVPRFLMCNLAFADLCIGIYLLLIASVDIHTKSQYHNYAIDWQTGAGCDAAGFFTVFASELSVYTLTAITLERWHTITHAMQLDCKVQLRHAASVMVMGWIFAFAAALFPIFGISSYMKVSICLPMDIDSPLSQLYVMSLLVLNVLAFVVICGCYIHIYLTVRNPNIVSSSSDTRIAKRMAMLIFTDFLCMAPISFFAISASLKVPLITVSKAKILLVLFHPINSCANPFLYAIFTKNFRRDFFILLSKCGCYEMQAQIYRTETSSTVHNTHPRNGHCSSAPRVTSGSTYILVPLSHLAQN

[7] = system: Rattus norvegicus; assay: Antiinflammatory activity against carrageenan-induced edema in po dosed Albino rat; assay type: functional
[8] = system: Mus musculus; assay: Potentiation of pentobarbital-induced hypnosis in mouse assessed as sleeping time at 100 mg/kg relative to control; assay type: functional
[9] = system: Alternaria alternata; assay: Inhibition of Alternaria tenuis spore germination; assay type: functional
[10] = system: Human immunodeficiency virus 1; assay: Antiviral activity against HIV1 3B in human MT4 cells; assay type: functional, organism-based; conditions: Human immunodeficiency virus 1, 3B

SMILES: Cc1cccc(N2C(=O)CSC2c2c(Cl)cccc2Cl)n1 (stereo not given)
selectivity ratio [1]: 6470

inhibition [2]: 55%
inhibition [3]: 35%
SMILES: CCCN1C(=O)/C(=C2\C=CC(OC)=CC2)S/C1=N\c1ccccc1

MIC [4]: 50 µg/mL (≈ 103 µM)
MIC [5]: 50 µg/mL (≈ 103 µM)
SMILES: CCCCCCCCCCCCN1C(=O)CSC12CCC(C(=O)C(N)Cc1ccccc1)CC2 (stereo not given)

EC50 [6]: 5000 nM
SMILES: COc1ccc(C2SC(CC(=O)NCCC3=CCc4ccccc43)C(=O)N2c2ccc(C(N)=O)c(Cl)c2)cc1 (stereo not given)

SMILES: CC1SC(c2ccccc2F)N(c2ccc(Br)cc2C(=O)O)C1=O (stereo not given)
ED50 [7]: 100 mg/kg

SMILES: O=C1CS/C(=N\c2ccccc2)N1CCCN1CCOCC1
Time [8]: 98.6 min
inhibition (INH) [9]: 100%

SMILES: CCCCC1C(=O)N(c2ccccc2)N(c2ccccc2)C1=O [PHENYLBUTAZONE]
ED50 [7]: 94.4 mg/kg

EC50 [10]: 204 nM
SMILES: O=C1CSC(c2c(Cl)cccc2Cl)N1Cc1ccco1 (stereo not given)

SMILES: CCN1C(=O)C(C)S/C1=N\c1nc2c(Cl)cccc2s1 (stereo not given)
inhibition (INH) [9]: 100%

SMILES: CCN1C(=O)C(C)S/C1=N\c1nc2cc(Cl)ccc2s1 (stereo not given)
inhibition (INH) [9]: 100%

SMILES: O=C1CS/C(=N\c2ccccc2)N1c1ncccn1
Time [8]: 98.6 min
inhibition (INH) [9]: 100%
